Results taken from patent US20050107270A1, “Alkyl ethanolamines for the control of mycobacteria in functional fluid” (priority 2003, published 2005).

Assays:
Type in all cases: cell-based
[1] = system: Mycobacterium marinum (ATCC # 927); assay: Mycobacterium marinum growth control, optical absorbance at 660 nm (Example 3); settings: 72 hours
Procedure: The impact of these N-alkyl alkanolamines on the control of the bacterial species Mycobacterium marinum (ATCC # 927) is given in Table 3. Bacterial concentration in the experimental media was monitored indirectly via optical absorbance at 660 nm. The values reported are end-point optical densities in milliOD units after 72 hours. The media consisted of a standardized solution of clear nutrient broth (Middlebrook 7H 10 with OADC supplement), amine, buffer (Tris) and water. The pH was adjusted initially to 8.5 with Tris buffer. The first column in Table 3 gives the amine concentration in parts per million by weight. In all cases, the values are averages of at least three replicates. The final row of Table 3 gives an estimate of the concentration range in which the amine in question starts to inhibit the growth of this bacterial species (minimum inhibitor concentration MIC).

[2] = system: Mycobacterium smegmatis (ATCC # 19420); assay: Mycobacterium smegmatis growth control, optical absorbance at 660 nm (Example 2); settings: 48 hours
Procedure: The impact of these N-alkyl alkanolamines on the control of the bacterial species Mycobacterium smegmatis (ATCC # 19420) is given in the Table 2. Bacterial concentration in the experimental media was monitored indirectly via optical absorbance at 660 nm. The values reported are end-point optical densities in milliOD units after 48 hours. The media consisted of a standardized solution of clear nutrient broth (Middlebrook 7H10 with OADC supplement), amine, buffer (Tris) and water. The pH was adjusted initially to 8.5 with Tris buffer. The first column in the Table gives the amine concentration in parts per million by weight. The final two columns give data for cells that also contained 2 grams per liter of boric acid. In all cases, the values are averages of at least three replicate runs. The final row of Table 2 gives an estimate of the concentration range in which the amine in question starts to inhibit the growth of this bacterial species (minimum inhibitor concentration MIC).

[3] = system: Mycobacterium smegmatis (ATCC # 19420); assay: Mycobacterium smegmatis growth control, optical absorbance at 590 nm with tetrazolium dye (Example 1); settings: compared with AMP (2-amino-2-methyl-1-propanol)
[4] = with 2 grams per liter of boric acid

| Compound | MIC (minimum inhibitor concentration), estimated concentration range in which the amine starts to inhibit growth [1] | MIC (minimum inhibitor concentration), estimated concentration range in which the amine starts to inhibit growth ([2]; no boric acid) | MIC (minimum inhibitor concentration), estimated concentration range in which the amine starts to inhibit growth [2, 4] | effectiveness against Mycobacteria, in words [3] |
| --- | --- | --- | --- | --- |
| CCCCNCCO [BAE, butylaminoethanol] | >4000 ppm |  |  |  |
| C1CCC(NC2CCCCC2)CC1 [DCHA, Dicyclohexylamine, reference compound] | >4000 ppm | 1500-2000 ppm | 1000-2000 ppm |  |
| CCCCCCCCNCCO [OAE, octylaminoethanol] | 1200-2000 ppm | <500 ppm | <500 ppm | markedly more effective than AMP |
| CCCCCCCCN(CCO)CCO [ODEA, Octyldiethanolamine] | 1200-2000 ppm | 500-1000 ppm |  |  |
